Data published in patent US10828305B2 (SHANGHAI PHARMACEUTICALS HOLDING CO., LTD., priority 2016, dated 2020).
Like-named read-outs stand apart in the source and are kept apart here.

Key:
CYP3A4 = target: T1, CYP3A4 (Homo sapiens, UniProt P08684); assay: Direct inhibition of CYP3A4, human liver microsome; type: in vitro ADME
T1 construct: from tissue; host or cells: human liver microsomes
Procedure: (§1) Research on Direct Inhibition of CYP3A4, CYP2D6, CYP2C9, CYP2C19, CYP1A2
(§2) 100 μL human liver microsome (with final concentration of 0.2 mg/mL) was used for direct inhibition under warm incubation, the positive control system contained NADPH (with final concentration of 1 mmol/L), a mixture of positive inhibitors (ketoconazole 0.01 to 10 μmol/L, quinidine 0.01 to 10 μmol/L, sulfaphenazole 0.1 to 100 μmol/L, tranylcypromine 1 to 1000 μmot/L, α-naphthoflavone 0.01 to 10 μmol/L), and a substrate mixture (with final concentration of midazolam 10 μmol/L, testosterone 100 μmol/L, dextromethorphan 10 μmol/L, diclofenac 20 μmol/L, S-mephenytoin 50 μmol/L, phenacetin 100 μmol/L), and the reaction was terminated after incubation for 20 min. The positive inhibitor was replaced with 0.1 to 100 μmol/L test compound in the test compound group. The reaction was terminated with acetonitrile containing 0.11 μg/mL internal standard tinidazole (1:3), vortexed for 10 min, centrifuged at 6000×g for 10 min, 50 μL supernatant was taken and put into a 96-well plate for injection.
(§3) In this experiment, IC50 of inhibition of the compound on the enzyme was calculated by measuring relative production of the probe metabolite. The activity of CYP3A4 was simultaneously characterized by two probes of midazolam and testosterone.

[1] = tested on: human breast cancer BT-474 xenograft; settings: oral, 20 days
CYP2C19 = target: T2, CYP2C19 (Homo sapiens, UniProt P33261); assay: Direct inhibition of CYP2C19, human liver microsome; type: in vitro ADME; settings: probe mephenytoin, read-out: IC50 2C19 (Mephenytoin)
T2 construct: from tissue; host or cells: human liver microsomes
Procedure: as §1, §2, §3

[2] = In vivo pharmacokinetics study in mice; settings: male, ICR, mouse, plasma, po, iv 3 mg/kg, intragastric 10 mg/kg, read-out: Absolute bioavailability F
Procedure: (§4) In Vivo Pharmacokinetics Study in Rats and Mice
24 male ICR mices, with weight of 18 to 22 g. The mice were fasted for 12 to 16 hours before the experiment, without restricting drinking water. 24 mice were divided into 2 groups, 12 mice for each group. The first group was intravenously administrated with test compound (10 mL/kg, 0.3 mg/mL) at a dose of 3 mg/kg, 0.4 mL blood sample was taken from venous plexus of the fundus of the eye into a pre-heparinized centrifuge tube (sodium heparin solution 10 μL/tube) before administration and 2, 5, 15, 30, 60, 90, 120, 240, 360, 480, 720, 1440 min after administration, respectively. The second group was dosed with compound (20 mL/kg, 0.5 mg/mL) by intragastric administration at a dose of 10 mg/kg, 0.4 mL blood sample was taken from venous plexus of the fundus of the eye into a pre-heparinized centrifuge tube (sodium heparin solution 10 μL/tube) before administration and 5, 15, 30, 60, 90, 120, 240, 360, 480, 720, and 1440 min after administration, respectively. 2 to 3 time points were taken for each mouse. […]
(§5) Taking 50 μL plasma sample of rat or mouse, adding […] acetonitrile containing internal standard (propranolol, 2.5 ng/ml) to precipitate protein. Vortexing for 10 min, centrifuging at 6000 g for 10 min, the supernatant was taken and diluted with mobile phase in a 96-well plate, the drug concentration in plasma was measured by UPLC/MS-MS. […]

[3] = In vivo pharmacokinetics study in rats; settings: male, SD, rat, plasma, po, iv 3 mg/kg, intragastric 6 mg/kg, read-out: Absolute bioavailability F
Procedure: as §4
5 male SD rats, with weight of 180 to 220 g. The rats were fasted for 12 to 16 hours before the experiment, without restricting drinking water. Two rats were intravenously administrated with dosing solution (3 mL/kg, 1 mg/mL) at a dose of 3 mg/kg, 0.4 mL blood sample was taken from venous plexus of the fundus of the eye into a pre-heparinized centrifuge tube (sodium heparin solution 10 μL/tube) before administration and 2, 5, 15, 30, 60, 90, 120, 240, 360, 480, 720, 1440 min after administration, respectively. Three rats were intragastricly administrated with dosing suspension (8 mL/kg, 0.75 mg/mL) at a dose of 6 mg/kg, 0.4 mL blood sample was taken from venous plexus of the fundus of the eye into a pre-heparinized centrifuge tube (sodium heparin solution 10 μL/tube) before administration and 5, 15, 30, 60, 90, 120, 240, 360, 480, 720, and 1440 min after administration, respectively. […]
as §5

CYP2D6 = target: T3, CYP2D6 (Homo sapiens, UniProt P10635); assay: Direct inhibition of CYP2D6, human liver microsome; type: in vitro ADME; settings: probe dextromethorphan, read-out: IC50 2D6 (Dextromethorphan)
T3 construct: from tissue; host or cells: human liver microsomes
Procedure: as §1, §2, §3

CYP2C9 = target: T4, CYP2C9 (Homo sapiens, UniProt P11712); assay: Direct inhibition of CYP2C9, human liver microsome; type: in vitro ADME; settings: probe diclofenac, read-out: IC50 2C9 (Diclofenac)
T4 construct: from tissue; host or cells: human liver microsomes
Procedure: as §1, §2, §3

[4] = probe midazolam, read-out: IC50 3A4 (Midazolam)
[5] = probe testosterone, read-out: IC50 3A4 (testosterone)

T1 sequence (P08684 whole entry): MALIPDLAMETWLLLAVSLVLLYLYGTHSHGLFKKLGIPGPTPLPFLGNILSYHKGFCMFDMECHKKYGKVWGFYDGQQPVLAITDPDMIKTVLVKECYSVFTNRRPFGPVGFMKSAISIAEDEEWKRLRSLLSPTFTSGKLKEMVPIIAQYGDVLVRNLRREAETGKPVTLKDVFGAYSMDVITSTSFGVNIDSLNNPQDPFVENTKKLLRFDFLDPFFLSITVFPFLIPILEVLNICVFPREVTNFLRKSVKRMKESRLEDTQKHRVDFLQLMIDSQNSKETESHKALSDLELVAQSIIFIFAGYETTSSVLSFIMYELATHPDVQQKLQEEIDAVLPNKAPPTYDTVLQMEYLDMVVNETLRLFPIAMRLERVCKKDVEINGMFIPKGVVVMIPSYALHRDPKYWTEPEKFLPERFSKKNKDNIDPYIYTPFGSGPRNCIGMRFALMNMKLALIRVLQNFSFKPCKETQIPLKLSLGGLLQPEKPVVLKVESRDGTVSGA
T3 sequence (P10635 whole entry): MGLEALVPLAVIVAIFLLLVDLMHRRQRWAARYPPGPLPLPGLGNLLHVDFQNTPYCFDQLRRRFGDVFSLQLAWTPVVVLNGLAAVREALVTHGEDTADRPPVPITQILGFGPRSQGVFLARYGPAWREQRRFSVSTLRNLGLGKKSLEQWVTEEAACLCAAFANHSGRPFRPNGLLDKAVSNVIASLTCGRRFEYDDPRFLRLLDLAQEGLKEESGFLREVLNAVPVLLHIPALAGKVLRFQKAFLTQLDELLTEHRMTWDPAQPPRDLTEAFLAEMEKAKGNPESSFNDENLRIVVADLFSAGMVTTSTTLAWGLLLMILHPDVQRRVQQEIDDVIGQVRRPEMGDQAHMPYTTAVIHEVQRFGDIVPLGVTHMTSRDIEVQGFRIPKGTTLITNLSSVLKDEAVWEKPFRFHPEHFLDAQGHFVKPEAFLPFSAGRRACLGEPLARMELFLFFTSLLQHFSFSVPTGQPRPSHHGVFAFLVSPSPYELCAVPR
T4 sequence (P11712 whole entry): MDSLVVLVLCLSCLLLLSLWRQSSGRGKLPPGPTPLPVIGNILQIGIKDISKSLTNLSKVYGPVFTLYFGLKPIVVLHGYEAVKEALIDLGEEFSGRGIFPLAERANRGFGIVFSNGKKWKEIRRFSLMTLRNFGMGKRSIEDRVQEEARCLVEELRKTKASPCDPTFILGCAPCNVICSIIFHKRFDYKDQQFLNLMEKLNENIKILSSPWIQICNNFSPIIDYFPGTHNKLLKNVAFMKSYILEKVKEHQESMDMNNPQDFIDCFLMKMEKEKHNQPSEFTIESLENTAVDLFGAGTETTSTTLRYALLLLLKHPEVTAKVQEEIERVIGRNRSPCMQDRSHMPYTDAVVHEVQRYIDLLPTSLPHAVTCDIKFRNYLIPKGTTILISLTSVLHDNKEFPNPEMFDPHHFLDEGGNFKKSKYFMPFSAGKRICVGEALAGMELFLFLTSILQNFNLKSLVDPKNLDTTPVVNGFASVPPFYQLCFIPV
T2 sequence (P33261 whole entry): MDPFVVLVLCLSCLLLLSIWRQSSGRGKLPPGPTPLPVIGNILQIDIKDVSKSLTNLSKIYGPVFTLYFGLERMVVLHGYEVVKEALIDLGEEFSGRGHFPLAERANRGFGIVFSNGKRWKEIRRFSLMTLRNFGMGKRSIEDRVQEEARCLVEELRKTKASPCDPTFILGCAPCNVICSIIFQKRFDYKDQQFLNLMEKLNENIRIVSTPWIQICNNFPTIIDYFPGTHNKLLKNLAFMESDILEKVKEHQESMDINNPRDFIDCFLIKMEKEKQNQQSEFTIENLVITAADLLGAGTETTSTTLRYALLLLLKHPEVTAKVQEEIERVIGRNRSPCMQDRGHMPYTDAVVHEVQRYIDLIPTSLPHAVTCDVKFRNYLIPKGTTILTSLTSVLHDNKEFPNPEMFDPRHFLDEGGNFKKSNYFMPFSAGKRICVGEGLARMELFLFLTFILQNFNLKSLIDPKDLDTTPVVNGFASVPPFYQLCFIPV

Row | SMILES | IC50 (CYP3A4; [4]) | IC50 (CYP3A4; [5]) | tumor volume inhibition rate (GI %) ([1]; 100MPK) | IC50 (CYP2C19) | bioavailability [2] | bioavailability [3] | IC50 (CYP2D6) | IC50 (CYP2C9) | tumor volume inhibition rate (GI %) ([1]; 25MPK) | tumor volume inhibition rate (GI %) ([1]; 50MPK) | tolerability [1]
1 | Cc1cc(Nc2ncnc3ccc(NC4=NC(C)(C)CO4)cc23)ccc1Oc1ccn2ncnc2c1 [ARRY-380, reference compound] | 11 µM | 11 µM | 108.8% | 35 µM | 61% | 9.5% | 3 µM | 13 µM | – | – | –
2 | Cc1cc(Nc2ncnc3ccc(NC4=NC(C)(C)CO4)cc23)ccc1Oc1cc2nncn2cn1 [Embodiment 4, N^4-(4-([1,2,4]triazolo[4,3-c]pyrimidin-7-yloxy)-3-methylphenyl)-N^6-(4,4-dimethyl-4,5-dihydrooxazol-2-yl)quinazoline-4,6-diamine] | 25 µM | 21 µM | 126.4% | 53 µM | 96.2% | 15.4% | 12 µM | 53 µM | 70.3% | 103.2% | good tolerability
